According to patent US20230086865A1, “ANTI-INFECTIVE BICYCLIC PEPTIDE CONJUGATES” (priority 2020, published 2023):
In brackets after ≈: the same amount, converted by molar mass.

Assays:
K. pneumoniae ATCC 43816 = test: MIC follow-on study; conditions: Klebsiella pneumoniae, ATCC43816
C. freundii AR0116 = test: MIC follow-on study; assay type: cell-based; conditions: Citrobacter freundii
Protocol: (§1) Minimum inhibitory concentration (MIC) assays were carried out using E. coli strains: GKCW101; GKCW102 and ATCC25922 using the method described by Antimicrobial Agents and Chemotherapy December 2016 Volume 60 Number 12 pages 7372-7381 and CLSI, 2020. Performance standards for antimicrobial susceptibility testing. Clinical Lab Standards Institute.
(§2) As a follow-on study, the MIC of BCY13246 was measured against a range of bacterial targets and compared with the MIC for the constituent bicyclic peptide ([…]) and carrier peptide ([…]) alone along with existing anti-microbial agents meropenem and levofloxacin. […].

E. coli NCTC 13441 = test: MIC follow-on study; assay type: cell-based; conditions: Escherichia coli, NCTC13441
Protocol: as §1, §2

[1] = tested on: K. pneumoniae ATCC 700603; test: MIC follow-on study; assay type: cell-based; conditions: Klebsiella pneumoniae, ATCC700603
Protocol: as §1, §2

K. pneumoniae KPNIH1 = test: MIC follow-on study; assay type: cell-based; conditions: Klebsiella pneumoniae
Protocol: as §1, §2

E. coli ATCC BAA-2469 = test: MIC follow-on study; assay type: cell-based; conditions: Escherichia coli, ATCCBAA2469
Protocol: as §1, §2

E. cloacae AR0038 = test: MIC follow-on study; assay type: cell-based; conditions: Enterobacter cloacae
Protocol: as §1, §2

P. mirabilis AR159 = test: MIC follow-on study; assay type: cell-based; conditions: Proteus mirabilis
Protocol: as §1, §2

E. cloacae KPC114 = test: MIC follow-on study; assay type: cell-based; conditions: Enterobacter cloacae
Protocol: as §1, §2

E. cloacae AR0032 = test: MIC follow-on study; assay type: cell-based; conditions: Enterobacter cloacae
Protocol: as §1, §2

A. baumannii AR0275 = test: MIC follow-on study; assay type: cell-based; conditions: Acinetobacter baumannii
Protocol: as §1, §2

A. baumannii NCTC 12156 = test: MIC follow-on study; conditions: Acinetobacter baumannii, NCTC12156
E. cloacae B173 = test: MIC follow-on study; conditions: Enterobacter cloacae
E. coli ATCC25922 = test: Minimum inhibitory concentration (MIC) assay; conditions: Escherichia coli
C. freundii B121 = test: MIC follow-on study; conditions: Citrobacter freundii
P. mirabilis ATCC 43071 = test: MIC follow-on study; conditions: Proteus mirabilis, ATCC43071
K. pneumoniae B454 = test: MIC follow-on study; conditions: Klebsiella pneumoniae
E. coli UTI89 = test: MIC follow-on study; conditions: Escherichia coli
P. aeruginosa NCTC 13437 = test: MIC follow-on study; assay type: cell-based; conditions: Pseudomonas aeruginosa, NCTC13437
Protocol: as §1, §2

P. aeruginosa ATCC 27853 = test: MIC follow-on study; conditions: Pseudomonas aeruginosa, ATCC27853

Row | Structure (SMILES) | MIC (K. pneumoniae ATCC 43816) [µg/mL] | MIC (C. freundii AR0116) [µg/mL] | MIC (E. coli NCTC 13441) [µg/mL] | MIC [1] [µg/mL] | MIC (K. pneumoniae KPNIH1) [µg/mL] | MIC (E. coli ATCC BAA-2469) [µg/mL] | MIC (E. cloacae AR0038) [µg/mL] | MIC (P. mirabilis AR159) [µg/mL] | MIC (E. cloacae KPC114) [µg/mL] | MIC (E. cloacae AR0032) [µg/mL] | MIC (A. baumannii AR0275) [µg/mL] | MIC (A. baumannii NCTC 12156) [µg/mL] | MIC (E. cloacae B173) [µg/mL] | MIC (E. coli ATCC25922) [µg/mL] | MIC (C. freundii B121) [µg/mL] | MIC (P. mirabilis ATCC 43071) [µg/mL] | MIC (K. pneumoniae B454) [µg/mL] | MIC (E. coli UTI89) [µg/mL] | MIC (P. aeruginosa NCTC 13437) [µg/mL] | MIC (P. aeruginosa ATCC 27853) [µg/mL]
1 | C[C@H]1COc2c(N3CCN(C)CC3)c(F)cc3c(=O)c(C(=O)O)cn1c23 [Levofloxacin, levofloxacin] | 0.06 (≈ 0.166 µM) | > 2 | > 2 | 0.5 (≈ 1.38 µM) | > 2 | > 2 | > 2 | 2 (≈ 5.53 µM) | 0.5 (≈ 1.38 µM) | 0.5 (≈ 1.38 µM) | > 2 | 0.25 (≈ 0.692 µM) | 0.03 (≈ 0.083 µM) | 0.016 (≈ 0.0443 µM) | 0.25 (≈ 0.692 µM) | 0.06 (≈ 0.166 µM) | > 2 | 0.03 (≈ 0.083 µM) |  | 
2 | C[C@@H](O)[C@H]1C(=O)N2C(C(=O)O)=C(S[C@@H]3CN[C@H](C(=O)N(C)C)C3)[C@H](C)[C@H]12 [Meropenem, meropenem] | 0.03 (≈ 0.0782 µM) | > 2 | 0.016 (≈ 0.0417 µM) | 0.03 (≈ 0.0782 µM) | > 2 | > 2 | > 2 | > 2 | > 2 | 0.25 (≈ 0.652 µM) | > 2 | 1 (≈ 2.61 µM) | 0.03 (≈ 0.0782 µM) | 0.016 (≈ 0.0417 µM) | 0.03 (≈ 0.0782 µM) | 0.06 (≈ 0.156 µM) | 0.03 (≈ 0.0782 µM) | 0.016 (≈ 0.0417 µM) | > 2 | 0.5 (≈ 1.3 µM)
